# Key:
# [1] = system: Relapsed/Refractory Multiple Myeloma (RRMM) patients; test: Clinical study of CC-93269 in RRMM: safety, cytokine release syndrome (CRS); assay type: in vivo, human
# Description: CC-93269 (42-TCBcv), a bispecific antibody that specifically binds to BCMA bivalently and CD3 monovalently, was administered intravenously over 2 hours on Days 1, 8, 15, and 22 for Cycles 1-3; Days 1 and 15 for Cycles 4-6; and on Day 1 for Cycle 7 and beyond, all in 28-day cycles. […] 5 patients received a starting dose of 6 mg on Cycle 1 Day 1, followed by a dose of 10 mg on Cycle 1 Day 8 and thereafter (Cohort 7, n=5).
# CRS prophylaxis was implemented with dexamethasone (up to 20 mg intravenous or equivalent) for the first dose and dose increases in patients receiving ≥6 mg. In Cohorts 1-4, dexamethasone was not used as a premedication.
# Patients were monitored for clinical signs and symptoms associated with CRS (Lee, 2014) and CRS events were graded and treated according to the common CTCAE CRS grading scale (Lee, 2015).
# CC-93269 was administered intravenously over 2 hours on Days 1, 8, 15, and 22 for Cycles 1-3; Days 1 and 15 for Cycles 4-6; and on Day 1 for Cycle 7 and beyond, all in 28-day cycles. Patients received a starting dose of 3 mg on Cycle 1 Day 1, followed by a dose of 6 mg on Cycle 1 Day 8 and thereafter.
# Cohorts 8 (n=6) and 9 (n=5) differ in baseline multiple myeloma tumor burden based on percentage of bone marrow plasma cells and/or the presence of extramedullary disease (Cohort 8 including subjects with ≤50% bone marrow plasma cells [biopsy or aspirate] and ≤5 extramedullary lesions and Cohort 9 including subjects with >50% bone marrow plasma cells or >5 extramedullary lesions). Patients with lower (Cohort 8) and higher (Cohort 9) tumour burden were enrolled to evaluate possible differences in tolerability based on the rationale that the only patient of Cohorts 1-7 to experience Grade ≥3 CRS had extensive extramedullary disease at enrolment.
# In Cohorts 8 and 9, all patients received dexamethasone (up to 20 mg intravenous or equivalent) as prophylaxis for CRS prior to the first dose, the second dose, any dose increase, and after dose interruption of more than 2 weeks occurring during Cycles 1 to 6. Patients were monitored, graded, and treated for CRS in the same way as for Cohorts 1-7 in Example 1.
# [2] = system: Relapsed/Refractory Multiple Myeloma (RRMM) patients; test: Clinical study of CC-93269 in RRMM: efficacy (IMWG response, MRD); assay type: in vivo, human
# Description: This study involved 19 RRMM patients who had received ≥3 prior regimens without prior BCMA-directed therapy. Prior treatments included autologous stem cell transplantation, allogenic stem cell transplantation, lenalidomide, pomalidomide, bortezomib, carfilzomib, and daratumumab (DARA). All patients had MM refractory to their last line of therapy.
# CC-93269 (42-TCBcv), a bispecific antibody that specifically binds to BCMA bivalently and CD3 monovalently, was administered intravenously over 2 hours on Days 1, 8, 15, and 22 for Cycles 1-3; Days 1 and 15 for Cycles 4-6; and on Day 1 for Cycle 7 and beyond, all in 28-day cycles. 14 patients received a fixed dose of CC-93269 at each of the intervals: 0.15 mg (Cohort 1, n=1), 0.5 mg (Cohort 2, n=1), 1.5 mg (Cohort 3, n=1), 3 mg (Cohort 4, n=4), 6 mg (Cohort 5, n=3) or 10 mg (Cohort 6, n=4). 5 patients received a starting dose of 6 mg on Cycle 1 Day 1, followed by a dose of 10 mg on Cycle 1 Day 8 and thereafter (Cohort 7, n=5).
# Response was assessed using the International Myeloma Working Group (IMWG) Uniform Response Criteria (Rajkumar, 2011a; Kumar, 2016) at every cycle starting on Cycle 2 Day 1 and at the end of treatment. Minimal residual disease (MRD) was assessed by EuroFlow evaluation and NGS (next-generation sequencing) if evaluable. MRD negativity was reported only if a minimum sensitivity of <1 tumour cell in 10^5 nucleated cells was achieved. […]
# [3] = 12 patients treated with ≥6 mg (Cohort 5 to 7)
# [4] = Patients Treated with <6 mg (n = 7)
# [5] = Patients Treated with up to 10 mg (n = 9)
# [6] = Patients Treated with ≥6 mg (n = 12)
# [7] = Patients treated with up to 3 mg (n = 7)
# [8] = Patients treated with up to 6 mg (n = 14)
# [9] = patients treated with ≥6 mg (Cohort 5 to 7)
substance,measurement,setting,value
"CC-93269: bispecific antibody that specifically binds to BCMA bivalently and CD3 monovalently; SEQ ID NO:48, 55, 56, 57 (2×)",patients who experienced CRS,"[1]; 11 patients, 3/6 mg dose regimen (Cohorts 8 and 9)",54.5%
same,subjects with Grade 2 or higher CRS events,[1]; 11 subjects receiving 3/6 mg,18.2%
same,subjects with Grade 2 or higher CRS events,"[1]; 12 subjects, 6 mg, 6/10 mg, or 10 mg doses",50%
same,subjects who experienced CRS,"[1]; 12 subjects, 6 mg, 6/10 mg, or 10 mg doses (Cohorts 5 to 7)",100%
same,"CRS, maximum Grade","[1]; Cohort 6, consecutive doses of 6 mg, all CRS events in Cycle 1",2
same,"CRS frequency or severity, higher versus lower tumor burden",[1]; Cohort 9 compared with Cohort 8,no increase observed
same,Grade 3 or higher CRS events,[1]; Cohorts 8 and 9,no Grade 3 or higher CRS events were reported
same,severity of CRS in comparison with Cohorts 5 to 7,[1]; Cohorts 8 and 9,generally decreased
same,CRS events of Grade 1,"[1]; Cohorts 8 and 9, 8 events",75%
same,CRS events of Grade 2,"[1]; Cohorts 8 and 9, 8 events",25%
same,outcome of CRS events,"[1]; Cohorts 8 and 9, tocilizumab and/or dexamethasone",resolved with standard treatments
same,death on study,"[1]; One patient, 6 mg first dose and 10 mg on Cycle 1 Day 8 (Cohort 7)",died on the study in the setting of CRS
same,CRS events lasting more than 3 days,[1]; all cohorts 1 to 9,4 of 36
same,CRS events occurring with the first dose on C1D1,[1]; all cohorts 1 to 9,73.3%
same,CRS events occurring with the second dose on C1D8,[1]; all cohorts 1 to 9,23.3%
same,"duration of a CRS event, range",[1]; all cohorts 1 to 9,1 to 7 days
same,maximum time to first onset of CRS,[1]; all cohorts 1 to 9,3 days
same,median duration of a CRS event,[1]; all cohorts 1 to 9,2 days
same,median time to first onset of CRS,[1]; all cohorts 1 to 9,1 days
same,CRS events occurring with subsequent doses,"[1]; all cohorts 1 to 9, limited to Grade ≤2 events",2.7%
same,tolerability,"[1]; consecutive doses of ≤3 mg, no CRS prophylactic",well-tolerated
same,"Cytokine release syndrome, maximum Grade",[1]; fixed dose of ≤3 mg,1
same,CRS Grade after the first dose,"[1]; one patient of Cohort 7, Cycle 1 Day 1, 6 mg",3
same,CRS Grade after the second dose,"[1]; same patient of Cohort 7, Cycle 1 Day 8, 10 mg",5
same,responses,"[2]; 4 patients of Cohort 4, consecutive doses of 3 mg",No responses were observed
same,preliminary overall response rate,"[2]; 9 subjects, maintenance dose of 10 mg (Cohorts 6 and 7)",88.9%
same,MRD negativity,[2]; [3],75.0%
same,overall response rate (partial response or better),[2]; [3],83.3%
same,stringent complete response (sCR),[2]; [3],33.3%
same,very good partial response (VGPR) or better,[2]; [3],58.3%
same,Best response: Minimal response (MR),[2]; All Patients (N =19),0 (0) n (%)
same,Best response: Not evaluable,[2]; All Patients (N =19),2 (10.5) n (%)
same,Best response: Partial response (PR),[2]; All Patients (N =19),3 (15.8) n (%)
same,Best response: Progressive disease (PD),[2]; All Patients (N =19),3 (15.8) n (%)
same,Best response: Stringent complete response + complete response (sCR + CR),[2]; All Patients (N =19),4 (21.1) n (%)
same,Best response: Very good partial response (VGPR),[2]; All Patients (N =19),3 (15.8) n (%)
same,VGPR or better,[2]; All Patients (N =19),7 (36.8) n (%)
same,Overall response (PR or better),"[2]; All Patients (N =19), Cohorts 1-7",10 (52.6) n (%)
same,response compared with Cohorts 1 to 4 (maintenance dose ≤3 mg),"[2]; Cohorts 8 and 9, starting dose 3 mg then maintenance dose ≥6 mg",improved response
same,Best response: Minimal response (MR),[2]; [4],0 (0) n (%)
same,Best response: Not evaluable,[2]; [4],1 (14.3) n (%)
same,Best response: Partial response (PR),[2]; [4],0 (0) n (%)
same,Best response: Progressive disease (PD),[2]; [4],2 (28.6) n (%)
same,Best response: Stringent complete response + complete response (sCR + CR),[2]; [4],0 (0) n (%)
same,Best response: Very good partial response (VGPR),[2]; [4],0 (0) n (%)
same,VGPR or better,[2]; [4],0 (0) n (%)
same,Overall response (PR or better),"[2]; Patients Treated with <6 mg (n = 7), Cohorts 1-7",0 (0) n (%)
same,Best response: Minimal response (MR),[2]; [5],0 n (%)
same,Best response: Not evaluable,[2]; [5],1 (11.1) n (%)
same,Best response: Partial response (PR),[2]; [5],1 (11.1) n (%)
same,Best response: Progressive disease (PD),[2]; [5],0 n (%)
same,Best response: Stringent complete response + complete response (sCR + CR),[2]; [5],4 (44.4) n (%)
same,Best response: Very good partial response (VGPR),[2]; [5],3 (33.3) n (%)
same,Overall response (PR or better),"[2]; Patients Treated with up to 10 mg (n = 9), Cohorts 1-9",8 (88.9) n (%)
same,Best response: Minimal response (MR),[2]; [6],0 (0) n (%)
same,Best response: Not evaluable,[2]; [6],1 (8.3) n (%)
same,Best response: Partial response (PR),[2]; [6],3 (25.0) n (%)
same,Best response: Progressive disease (PD),[2]; [6],1 (8.3) n (%)
same,Best response: Stringent complete response + complete response (sCR + CR),[2]; [6],4 (33.3) n (%)
same,Best response: Very good partial response (VGPR),[2]; [6],3 (25.0) n (%)
same,MRD negative,[2]; [6],9 (75.0) n (%)
same,VGPR or better,[2]; [6],7 (58.3) n (%)
same,Overall response (PR or better),"[2]; Patients Treated with ≥6 mg (n = 12), Cohorts 1-7",10 (83.3) n (%)
same,Best response: Minimal response (MR),[2]; [7],0 (0) n (%)
same,Best response: Not evaluable,[2]; [7],1 (14.3) n (%)
same,Best response: Partial response (PR),[2]; [7],0 (0) n (%)
same,Best response: Progressive disease (PD),[2]; [7],2 (28.6) n (%)
same,Best response: Stringent complete response + complete response (sCR + CR),[2]; [7],0 (0) n (%)
same,Best response: Very good partial response (VGPR),[2]; [7],0 (0) n (%)
same,Overall response (PR or better),"[2]; Patients treated with up to 3 mg (n = 7), Cohorts 1-9",0 (0) n (%)
same,Best response: Minimal response (MR),[2]; [8],0 (0) n (%)
same,Best response: Not evaluable,[2]; [8],3 (21.4) n (%)
same,Best response: Partial response (PR),[2]; [8],3 (21.4) n (%)
same,Best response: Progressive disease (PD),[2]; [8],5 (35.7) n (%)
same,Best response: Stringent complete response + complete response (sCR + CR),[2]; [8],1 (7.1) n (%)
same,Best response: Very good partial response (VGPR),[2]; [8],1 (7.1) n (%)
same,Overall response (PR or better),"[2]; Patients treated with up to 6 mg (n = 14), Cohorts 1-9",5 (35.7) n (%)
same,preliminary overall response rate,"[2]; patients treated with up to 6 mg (Cohorts 5, 8, and 9)",35.7%
same,median time to response,[2]; [9],4.2 weeks
same,"time to response, range",[2]; [9],4.0-13.1 weeks

# — patent publication US20230057602A1, “METHODS OF TREATMENT WITH ANTIBODIES AGAINST BCMA AND CD3” (BRISTOL-MYERS SQUIBB COMPANY, priority 2019, published 2023)
